Results as given in patent EP0135897A2 (priority 1983, dated 1985).

Tests used:
[1] = test system: Brusone-Pilzes (Piricularia oryzae); format: in vivo; settings: Wirkstoff-Konzentration 0,8 g/m^2 applied to the water surface; rice (Asahi) inoculated 4 days later; assessed 7 days after inoculation; three pots per test
[2] = test system: Reispflanzen (Varietät: Asahi); settings: in vivo

Compound	Bekämpfungs-Index (%) [1]	Phyto-toxizität [2]
CC1(CCl)C(COC(=O)CCl)C1(Cl)Cl [D-1, 2,2-Dichloro-(cis)-3-methyl-(trans)-3-chloromethylcyclopropanmethanol-chloroacetat]	100%	-
CC1(CCl)C(CO)C1(Cl)Cl (stereo not drawn) [Verbindung d. Erfindung, 2,2-Dichloro-(cis)-3-methyl-(trans)-3-chloromethylcyclopropanmethanol]	100%	-
